Assay results published in the METLIN SMRT retention time set (Domingo-Almenara et al. 2019).

Test: gradient 5% acetonitrile 3 min, to 50% in 2 min, to 85% in 15 min, held 3 min, 100 µL/min
Conditions: column: Zorbax Extend-C18 2.1 x 50 mm; eluents: water / acetonitrile, 0.1% formic acid
Summary of the method: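 The mobile phases were water and acetonitrile, each with 0.1% formic acid, pumped at 100 μL/min through a Zorbax Extend-C18 column (2.1 × 50 mm, 1.8 μm). Pure standards were injected as mixtures of ~100 molecules and detected by a quadrupole time-of-flight mass spectrometer in positive and negative ionization mode. Retention time came from computationally picked adduct peaks, each inspected by hand.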

| RP-LC retention time [s] | Structure (SMILES) |
| --- | --- |
| 824 | O=C(NCc1ccc2c(c1)N(C(=O)c1ccc(Cl)cc1)CC2)C1CC1 |
| 809 | O=c1n(CCc2ccccc2)nc2ccc(S(=O)(=O)N3CCOCC3)cn12 |
| 927 | Cc1csc(-c2cc(S(=O)(=O)NC3CCCCC3)cn2CC(=O)N2CCCC2)n1 |
| 1230 | O=C(NCc1ccc(Cl)cc1)c1c(O)c2cccnc2n(-c2ccc(F)cc2)c1=O |
| 763 | Cc1csc(NC(=O)Cc2cc(-c3cccs3)on2)n1 |
| 747 | O=C(c1ccc2cc[nH]c2c1)N1CCN(c2cc(-c3cccs3)[nH]n2)CC1 |
| 893 | CCCCN(C)c1nc(-c2ccc(Cl)cc2Cl)nc2ccccc12 |
| 651 | Cc1ccccc1Nc1c(-c2ccc(O)cc2)nc2c(C)cccn12 |
| 764 | CCn1nccc1C(=O)NC1CCN(C2=NS(=O)(=O)C(c3ccccc3)=C2C)CC1 |
| 979 | CCCS(=O)(=O)N1CC(=O)N(c2ccc(F)cc2F)C(C)(C(=O)NC2CCCCCC2)C1 (configuration not stated) |
| 932 | COC(=O)C1=CN(C2CC2)c2cc(N3CCCCC3)c(F)cc2S1(=O)=O |
| 606 | CN1CCc2cccc3c2C1Cc1ccc(O)c(O)c1-3 (configuration not stated) |
| 734 | CCCOC(=O)c1cnc2nc(C)ccc2c1NCc1ccc2c(c1)OCO2 |
| 725 | CC(NC(=O)c1ccco1)c1nc2ccccc2n1CC(=O)N(c1ccccc1)C(C)C (configuration not stated) |
| 902 | CCCn1c(=O)c2sc(N3CCCC3)nc2n(CC(=O)Nc2cc(F)cc(F)c2)c1=O |
| 1060 | CCc1ccc(C2CC(=O)Nc3c(S(=O)(=O)c4ccccc4)csc32)cc1 (configuration not stated) |
| 761 | COc1ccc(CC(=O)N2CCC3(C2)C(=O)Nc2ccccc23)cc1Cl (configuration not stated) |
| 927 | CCCC(C)C(=O)NC1CCN(C2=NS(=O)(=O)C(c3ccc(C)c(C)c3)=C2C)CC1 (configuration not stated) |
| 726 | Cc1ccc2nc(-c3ccc(N(C)C)cc3)c(Nc3ccc4c(c3)OCCO4)n2c1 |

| RP-LC retention time [s] | Structure (SMILES) |
| --- | --- |
| 800 | Cn1c(=O)c2cc(C(=O)NCc3ccc(Cl)cc3)sc2n(C)c1=O |
| 613 | O=C(NCc1ccccc1)c1ccc2ncnc(N3CCCC3)c2c1 |
| 596 | CC(C)c1nnc2n1CCN(C(=O)c1ccsc1)C2 |
| 631 | CC(C)C(=O)Nc1ccc(C(=O)NCCNS(=O)(=O)N(C)C)cc1 |
| 677 | CC1=C(c2cccc(Cl)c2)S(=O)(=O)N=C1N1CCCN(C(=O)c2ccncc2)CC1 |
| 817 | CC(C)NC(=O)Cn1cnc2c(sc3nc(-c4ccccc4)ccc32)c1=O |
| 650 | COc1ccc(F)cc1S(=O)(=O)N1CCC(n2cnnc2C)CC1 |
| 567 | CN(C)C[C@@H]1CN(c2ccccn2)C[C@H]1NC(=O)c1ccc2ccccc2n1 |
| 605 | COc1ccc(NC(=O)C2CCN(c3cncnc3N3CCOCC3)CC2)cc1 |
| 822 | CC(C)(Oc1ccc(Cl)cc1)C(=O)Nc1ccc2cn[nH]c2c1 |
| 709 | O=C(Nc1nnc(C2CC(=O)N(c3ccccc3)C2)o1)c1ccccc1Br (configuration not stated) |
| 674 | Cc1c(NC(=O)OC[C@@H]2COCCN2)cn2ncnc(Nc3ccc4c(cnn4Cc4cccc(F)c4)c3)c12 |
| 798 | CCc1cccc(NC(=O)Cn2ccc3ccc(-c4nnc(C)o4)cc32)c1 |
| 830 | CCn1cnc(S(=O)(=O)N2CCCC(C(=O)Nc3ccc(F)c(Cl)c3)C2)c1 (configuration not stated) |
| 904 | Cn1ncc2c3ccccc3n(CC(=O)NCCC3=CCCCC3)c2c1=O |
| 802 | COc1ccccc1CCNC(=O)CSc1ccc(-c2cccs2)nn1 |
| 778 | CC(C)CCNC(=O)CCC(=O)N1CCCn2nc(-c3cn(C)c4ccccc34)cc21 |
| 553 | CCn1cc(CC(=O)N2CCC(N3CCCCC3)CC2)c2cccnc21 |
